Test results reported in article PMC3145320 (Bioorganic & medicinal chemistry, 2011).

Experiments:
κ-opioid receptor = κ-opioid receptor (Homo sapiens, UniProt P41145); test: [35S]GTP-γ-S binding, κ-antagonism; assay type: biochemical; conditions: n=3; for Kb: Ke κ-Antagonism
μ-opiate receptor [1] = biological target: T1, μ-opiate receptor (Homo sapiens, UniProt P35372); assay type: binding; conditions: read-out: Ki μ
μ-opiate receptor [2] = biological target: T1, μ-opiate receptor; test: biochemical; conditions: for Kb: Ke μ-Antagonism
κ-opiate receptor = κ-opiate receptor (Homo sapiens, UniProt P41145); test: [3H] opioid receptor binding, κ; conditions: read-out: Ki κ; CHO cells stably transfected, expressing κ-opiate receptor; n=3
Chain of κ-opiate receptor (P41145 whole entry): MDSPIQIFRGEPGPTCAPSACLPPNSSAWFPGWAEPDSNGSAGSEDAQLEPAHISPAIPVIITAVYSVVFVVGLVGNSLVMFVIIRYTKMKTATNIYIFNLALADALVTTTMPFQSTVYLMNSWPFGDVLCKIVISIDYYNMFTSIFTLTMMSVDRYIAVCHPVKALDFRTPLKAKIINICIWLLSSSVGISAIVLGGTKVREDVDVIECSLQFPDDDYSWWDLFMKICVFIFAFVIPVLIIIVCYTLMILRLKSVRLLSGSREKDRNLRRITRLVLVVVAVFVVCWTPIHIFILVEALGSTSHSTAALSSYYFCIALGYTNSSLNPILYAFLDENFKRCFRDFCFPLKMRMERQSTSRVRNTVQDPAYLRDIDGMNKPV

Chain of κ-opioid receptor (P41145 whole entry): as above
T1 sequence (P35372 whole entry): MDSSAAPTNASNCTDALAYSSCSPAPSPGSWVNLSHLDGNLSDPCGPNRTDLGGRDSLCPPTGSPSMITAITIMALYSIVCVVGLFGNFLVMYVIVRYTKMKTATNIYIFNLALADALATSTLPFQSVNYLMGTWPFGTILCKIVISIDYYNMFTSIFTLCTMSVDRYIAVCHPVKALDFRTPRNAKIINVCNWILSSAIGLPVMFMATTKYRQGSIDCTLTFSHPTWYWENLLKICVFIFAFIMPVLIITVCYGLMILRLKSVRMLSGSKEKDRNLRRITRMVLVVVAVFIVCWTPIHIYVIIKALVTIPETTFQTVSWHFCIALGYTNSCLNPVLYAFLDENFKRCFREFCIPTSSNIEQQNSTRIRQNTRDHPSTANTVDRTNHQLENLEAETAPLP

| Compound | Ke κ-Antagonism (κ-opioid receptor) [nM] | Ki (μ-opiate receptor [1]) [µM] | Ke μ-Antagonism (μ-opiate receptor [2]) [nM] | Ki (κ-opiate receptor) [µM] | Kb (κ-opioid receptor) [µM] | Kb (μ-opiate receptor [2]) [µM] |
| --- | --- | --- | --- | --- | --- | --- |
| (4S,6aR,11bS)-2,3,4,5,6,6a-hexahydro-3-phenethyl-1H-4,11b-methanobenzofuro[3,2-d]azocine-8-ol [Compound 19a] | 761 ± 191 | 0.384 ± 0.038 | 328 ± 67 | 0.367 ± 0.019 |  |  |
| Oc1ccc2c(c1)[C@]13CCN(CCc4ccccc4)[C@H](CC[C@H]1O2)C3 (racemic) [rac 10, rac-(4R,6aR,11bR)-2,3,4,5,6,6a-hexahydro-3-phenethyl-1H-4,11b-methanobenzofuro[3,2-d]azocin-10-ol] |  |  |  |  | 0.046 ± 0.009 |  |
| Oc1ccc2c(c1)[C@@]13CCN(CCc4ccccc4)[C@@H](CC[C@H]1O2)C3 [Compound 16b, (4S,6aR,11bS)-2,3,4,5,6,6a-Hexahydro-3-phenethyl-1H-4,11b-methanobenzofuro[3,2-d]azocine-10-ol] |  |  |  |  | 0.103 ± 0.017 | 0.227 ± 0.033 |
| Oc1cccc2c1O[C@H]1CC[C@@H]3C[C@]21CCN3CCc1ccccc1 (stereo in doubt) [Compound 19b, (4R,6aS,11bR)-2,3,4,5,6,6a-Hexahydro-3-phenethyl-1H-4,11b-methanobenzofuro[3,2-d]azocine-8-ol] |  |  |  |  | 0.022 ± 0.006 | 0.031 ± 0.006 |
| Oc1ccc2c(c1)[C@]13CCN(CCc4ccccc4)[C@H](CC[C@@H]1O2)C3 [Compound 16a, (4R,6aS,11bR)-2,3,4,5,6,6a-Hexahydro-3-phenethyl-1H-4,11b-methanobenzofuro[3,2-d]azocine-10-ol] |  |  |  |  | 0.1 ± 0.003 | 0.047 ± 0.009 |
| Oc1cccc2c1O[C@@H]1CC[C@@H]3C[C@]21CCN3CCc1ccccc1 (racemic) [rac 5, rac-(4R,6aR,11bR)-2,3,4,5,6,6a-hexahydro-3-phenethyl-1H-4,11b-methanobenzofuro[3,2-d]azocin-8-ol] |  |  |  |  | 0.163 ± 0.029 | 0.274 ± 0.049 |
